Data published in PubChem BioAssay (NCI).
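All cell lines were grown in 96-well plates and treated with compound for 48 hours. GI50: concentration for 50% inhibition of growth. Definition used: TGI = concentration required for complete inhibition of growth.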

Legend:
Assay in all cases: NCI-60 cell line screen, 48 h
[1] = test system: 786-0 renal
[2] = test system: SF-539 CNS
[3] = test system: BT-549 breast
[4] = test system: NCI-H522 lung
[5] = test system: SW-620 colon
[6] = test system: SK-MEL-5 melanoma
[7] = test system: A498 renal
[8] = test system: SF-268 CNS
[9] = test system: SR leukemia
[10] = test system: UACC-62 melanoma

SMILES	GI50 [1] [µM]	TGI [1] [µM]	GI50 [2] [µM]	GI50 [3] [µM]	TGI [3] [µM]	GI50 [4] [µM]	TGI [4] [µM]	GI50 [5] [µM]	TGI [5] [µM]	GI50 [6] [µM]	TGI [6] [µM]	GI50 [7] [µM]	TGI [7] [µM]	GI50 [8] [µM]	TGI [8] [µM]	GI50 [9] [µM]	TGI [9] [µM]	GI50 [10] [µM]	TGI [10] [µM]	TGI [2] [µM]
CN(C)c1ccc2nc3ccc(=O)cc-3sc2c1	2.06	> 100	0.287	0.712	> 100	0.835	7.85	1.36	> 100	0.173	0.495	11	> 92.8	5.16	> 100	0.884	> 46.5	1.32	8.69	–
COc1ccc(/C=c2/sc3n(c2=O)C(c2ccc(OC)c(OC)c2)C2=C(N=3)c3cc(F)ccc3OC2)cc1 (centres undefined)	42.1	> 100	43	46.2	> 100	51.8	> 100	50.5	> 100	22.3	> 62.4	45.6	> 80.9	15.5	> 100	60.9	> 100	17.9	> 63.3	> 100
O=C(O)c1cccc(OCCO)c1	–	> 100	–	–	> 100	–	> 100	–	> 100	–	> 100	–	> 100	–	> 100	–	> 100	–	> 100	> 100
Cc1c[n+](Cc2ccc3ccccc3c2)cn1Cc1ccc2ccccc2c1	1.71	3.63	1.57	1.56	3.12	1.41	3.05	1.64	3.74	0.688	1.94	0.954	4.29	1.36	2.88	1.46	3.58	1.41	3.12	3.05
O=c1[nH]c2cc(Cl)ccc2n1C1CCN(CCCC(c2ccc(F)cc2)c2ccc(F)cc2)CC1	1.46	2.79	1.64	1.32	2.92	1.82	3.64	1.52	2.99	1.55	2.89	1.34	2.74	1.56	2.98	2.25	8.36	1.71	3.13	3
Cc1cn2c(/C=C3/C(=O)Nc4ccccc43)c(-c3ccc(Cl)cc3)nc2s1	7.08	13.6	5.8	9.32	19.3	9.01	19.5	15.1	38.2	9.06	16	10.6	23.6	7.41	24.4	11.5	39.8	5.49	11.5	11.9
O=C1/C(=C\c2cccn2Cc2ccccc2)c2ccccc2N1c1c(Cl)cccc1Cl	> 100	> 100	> 100	> 100	> 100	> 100	> 100	> 100	> 100	3.02	> 100	> 100	> 100	> 100	> 100	> 73.4	> 100	3.28	> 100	> 100
CCOC(=O)N1CCN(C(=O)c2ccc(C(F)(F)F)nc2Nc2cc(Cl)ccc2C)CC1	41.1	> 100	33.7	19.2	73.2	4.43	27.4	15.4	92.9	10.1	23.2	21.1	56.4	74.8	> 100	7.74	65.7	10	25.6	> 100
CC(=O)c1c(CBr)n([O-])c2ccccc2[n+]1=O	5.59	17.7	11.2	9.61	21.5	2.93	8.91	2.04	4.15	10.5	22.6	23.6	54.8	–	–	3.22	8.03	14.9	28.6	24
O=C1c2ccn(CCCCNC(CO)(CO)CO)c2C(=O)c2c1c(O)c1ccccc1c2O	2.29	6.05	–	22.7	69.9	4.38	> 100	2.02	13	5.21	53.1	16.5	46.8	3.41	18.1	2.42	5.76	–	0.931	–
